# From patent EP0230013A1, “New anthracycline derivatives, uses thereof as antitumor agent and production thereof” (ZAIDAN HOJIN BISEIBUTSU KAGAKU KENKYU KAI, priority 1985, dated 1987)
# Read-outs that look alike come from different tables or passages of the source.
# Columns and labels:
# [1] = tested on: Leukemia L-1210 cells; test: Antitumor activity on leukemia in mice caused by Leukemia L-1210 cells (Test I); assay type: in vivo; design: key: *: shows that a toxicity or its sign of the compound tested in the animals tested such as death due to toxicity or weight loss was observed; conditions: L-1210 mice
# Method: Antitumor activity on leukemia in CDF, mice caused by Leukemia L-1210 cells
# In this test, Compound Nos. I and 2 of this invention were assessed in comparison with daunomycin and adriamycin on their tumor inhibitory activity against leukemia in mice. Thus, CDF, mice were intraperitoneally transplanted with cells of Leukemia L-1210 (I ^x 10^5 cells/mouse). From 24 hours after i.p. transplantation of L 1210 cells, each compound to be tested was administered intraperitoneally for 9 consecutive days at once per day. Observation was made for 60 days where survival days of each mouse tested were recorded and percentage increase in lifespan of the treated mice, in comparison with control test wherein mice were treated only, with the administration of physiological saline, was calculated as T/C % where T is the mean survival days of the treated animals and C is the mean survival days of the untreated control animals.The test results are shown in Table I.
# [2] = Acid hydrolysis of the glycoside linkage, analysed by TLC (Test 2); assay type: physicochemical
# Description: A further advantage of the anthracycline derivatives of formula (I) according to this invention is in that the susceptibility of the glycoside linkage to be broken by acid hydrolysis is very low. This is, we believe, to be one of reasons why the compounds of this invention are of low toxicity. […] Of course, a high chemical stability of a compound in vitro is not always related to its stability against hydrolysis in vivo, but it may be assumed in view of high anticancer effects in vivo of the compounds of this invention that the glycoside linkage of those compounds is of high stability in vivo, too. In any case, it is true that such high chemical stability of the glycoside linkage of the compounds of this invnetion is advantageous in that it makes the handling of those compounds easy in chemical applications. Test 2 given below illustrates the high stability of the glycoside linkage of the compounds of this invention.
# Daunomycin (I mg) was dissolved in a mixture (0.1 ml) of 0.2 N^*HCI-80% CH3CN-H,O (^* the 0.2 N concentration of HCI being of the said mixture) and the solution was heated in an oil bath at 61 -62°C for 30 minutes to cause the hydrolysis. […] The reaction solution was allowed to stand at room temperature to deposit daunomycinone as red crystals.
# FTDM (0.7 mg) was suspended in a mixture (0.1 ml) of 0.2 N HCI-80% CH,CN-H20 and the suspension was stirred in an oil bath at 61 -62°C for 30 minutes.
# A futher amount (0.3 ml) of the mixture of 0.2N HCI-80% CH3CN-H20 was added to the reaction mixture, when the mixture substantially became a solution with a little amount of insolubles. Then, it was heated to 61-62°C under stirring to give a homogeneous solution.
# [3] = tested on: Leukemia P 388; conditions: cited from earlier work
# [4] = tested on: Leukemia L-1210; conditions: dosage of 25 mg/kg, single dose per day, intraperitoneally for 9 days, Leukemia L-1210 mice; cited from earlier work
# [5] = Dose 5 mg/kg/day i.p. for 9 days
# [6] = 0.2 N HCl-80% CH3CN-H2O, 61 -62°C (about 60°C), 30 minutes
structure (smiles),measurement,setting,value
"COc1cccc2c1C(=O)c1c(O)c3c(c(O)c1C2=O)C[C@@](O)(C(C)=O)C[C@@H]3O[C@H]1C[C@H](N)[C@H](O)[C@H](C)O1 [Daunomycin, daunomycin]",toxicity or its sign (death due to toxicity or weight loss),[1]; Dose 2.5 mg/kg/day i.p. for 9 days,*
same,toxicity or its sign (death due to toxicity or weight loss),[1]; [5],*
same,acid hydrolysis (TLC),[2]; [6],disappearance of the spot of daunomycin
same,acid hydrolysis (TLC),"[2]; 0.2 N HCl-80% CH3CN-H2O, 61 -62°C (about 60°C), 30 minutes, listed as daunomycin",completely decomposed
"COc1cccc2c1C(=O)c1c(O)c3c(c(O)c1C2=O)C[C@@](O)(C(C)=O)C[C@@H]3O[C@@H]1O[C@@H](C)[C@H](OC(C)=O)[C@@H](OC(C)=O)[C@H]1I [Compound NSC 331,962, 7-O-(3,4-di-O-acetyl-2,6-dideoxy-2-iodo-a-L-mannohexopyranosyl) daunomycinone]","increase (in %) of survival days of the mice treated, compared to the mice untreated (T/C, %)","[3]; dosage of 50 mg/kg, Leukemia P 388 mice",247%
same,"increase (in %) of survival days of the mice treated, as compared to the mice untreated (T/C, %)",[4],196%
"COc1cccc2c1C(=O)c1c(O)c3c(c(O)c1C2=O)C[C@@](O)(C(=O)CO)C[C@@H]3O[C@H]1C[C@H](N)[C@H](O)[C@H](C)O1 [Adriamycin, adriamycin]",toxicity or its sign (death due to toxicity or weight loss),[1]; [5],*
"COc1cccc2c1C(=O)c1c(O)c3c(c(O)c1C2=O)C[C@@](O)(C(C)=O)C[C@@H]3O[C@@H]1O[C@@H](C)[C@@H](O)[C@@H](O)[C@H]1F [Compound No. 1, 7-O-(2,6-dideoxy-2-fluoro-α-L-talopyranosyl)daunomycinone]",acid hydrolysis (TLC),[2]; [6],presence of the spot of FTDM only
same,acid hydrolysis (TLC),"[2]; 0.2N HCl-80% CH3CN-H2O, 61-62°C, further 3 hours",the spot of FTDM only
same,acid hydrolysis (TLC),"[2]; 1 N HCl in acetonitrile-water (4:1), 61-62°C (about 60°C), 8 hours, listed as Compound No. I","remains substantially as it is,without being decomposed"
same,acid hydrolysis (TLC),"[2]; 1 N HCl in acetonitrile-water (4:1), 61-62°C (about 60°C), 8 hours, listed as FTDM","a spot of a trace amount of daunomycinone appeared, but most of FTDM was also present as it was"
"COc1cccc2c1C(=O)c1c(O)c3c(c(O)c1C2=O)C[C@@](O)(C(C)=O)C[C@@H]3O[C@@H]1O[C@@H](C)[C@@H](OC(C)=O)[C@@H](OC(C)=O)[C@H]1I [Compound NSC 327,472, 7-O-(3,4-di-O-acetyl-2,6-dideoxy-2-iodo-a-L-talohexopyranosyl)daunomycinone]",increase (%) of survival days of the Leukemia P 388-inoculated mice treated,[3]; dosage of 12.5 mg/kg to 25 mg/kg,172%
same,increase (%) of survival days of the Leukemia P 388-inoculated mice treated,[3]; dosage of 150 mg/kg,162%
